Patent US20110268818A1, “NGAL-BINDING SIDEROPHORES AND USE THEREOF TO TREAT IRON DEFICIENCY AND IRON OVERLOAD” (priority 2008, published 2011)
Structures can show the parent of a compound that is named as a salt.

Columns and labels:
NGAL = target: T1, NGAL (Homo sapiens, UniProt P80188); assay: NGAL:siderophore:iron binding assay (retention on 10 kDa filter); conditions: for NGAL-siderophore-Fe binding activity (in words): iron retention by NGAL on filter
T1 construct: made in house; host or cells: E. coli BL-21
T1 sequence (P80188 21-198): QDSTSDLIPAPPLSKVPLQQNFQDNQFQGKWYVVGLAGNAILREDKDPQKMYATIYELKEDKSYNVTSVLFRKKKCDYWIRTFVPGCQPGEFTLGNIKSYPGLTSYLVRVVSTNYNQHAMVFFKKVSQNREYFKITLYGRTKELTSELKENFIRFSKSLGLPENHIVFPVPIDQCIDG
Experimental: NGAL:Siderophore:Iron Binding Assays. […] After 60 minutes, the mixture was washed 3 times (YM-10) or alternatively gel filtered (PD-10, GE Biosciences). Ent loaded NGAL served as a positive control. Ferric citrate (1 mM) or Ent:iron (500 μM) served as competitors of ^55Fe binding.
After 60 minutes at room temperature, the mixture was then washed 3 times on a 10-kDa membrane (Amicon YM-10; Millipore Corp.). Ngal loaded with iron-free enterochelin (rather than apo-Ngal) served as a positive control for iron capture. Ferric citrate (1 mM) or iron-loaded enterochelin (siderophore:Fe, […]) was used as a competitor of 55Fe binding.

[1] = Siderophore:iron binding assay (paper chromatography); conditions: for Fe: Chromatography: 55Fe mobilised by compound on paper chromatogram developed in water, Yes/No
Source text: Siderophore:Iron Binding Assay. To test whether candidates bound iron directly, candidates (1 nmole) were mixed with ^55Fe (1 pmole), and then separated bound from free ^55Fe using paper chromatography developed in water.
Paper chromatography: The Fe-Siderophore Binding Assay: The concept underlying the Ngal-siderophore-Fe binding assay is that the urinary molecule provides an iron binding siderophore, and that the Ngal protein provides the carrier which retains the siderophore:Fe on the 10 KDa filter. […] To directly test this idea, we will mix 55Fe with HMDB compounds and then separate bound from free 55Fe by using paper chromatography. […] The assay also provides an independent means to follow the purification of the urinary siderophore. Using this assay, we can measure the specific activity of the fractions to identify the peak activity, as well as to compare the urinary fraction with enterochelin to establish relative units of activity.

[2] = apoNGAL 10 μM, 55Fe, compound 10 μM, pH 7.4, washed on 10 kDa filter

## C=CC1=C(C)/C(=C/c2[nH]c(Cc3[nH]c(/C=C4\NC(=O)C(C)=C4C=C)c(C)c3CCC(=O)O)c(CCC(=O)O)c2C)NC1=O [Bilirubin]
NGAL; [2]
  NGAL: Chelator: Fe % Retention: 3%
[1]
  Fe: Chromatography: No

## C=CC1=C(C)c2cc3[nH]c(cc4nc(cc5[nH]c(cc1n2)c(C)c5CCC(=O)O)C(CCC(=O)O)=C4C)c(C)c3C=C [Protoporphyrin IX]
NGAL; [2]
  NGAL: Chelator: Fe % Retention: 3%

## NCc1[nH]cc(CCC(=O)O)c1CC(=O)O [Porphobilinogen]
NGAL; [2]
  NGAL: Chelator: Fe % Retention: 3%
[1]
  Fe: Chromatography: No

## O=C(O)/C=C(/CC(=O)O)C(=O)O [Cis-Aconitic acid]
NGAL; [2]
  NGAL: Chelator: Fe % Retention: 11%
[1]
  Fe: Chromatography: No

## NCCc1cc(O)c(O)c(O)c1 [5-Hydroxydopamine]
NGAL; [2]
  NGAL: Chelator: Fe % Retention: 10%
[1]
  Fe: Chromatography: No

## O=c1c(O)c(-c2cc(O)c(O)c(O)c2)oc2cc(O)cc(O)c12 [Myricetin]
NGAL; [2]
  NGAL: Chelator: Fe % Retention: 28%
NGAL
  NGAL-siderophore-Fe binding activity (in words): active
[1]
  Fe: Chromatography: No

## O=C(O)Cc1cc(O)ccc1O [Homogentisic acid]
NGAL; [2]
  NGAL: Chelator: Fe % Retention: 7%
[1]
  Fe: Chromatography: No

## NCC(=O)CCC(=O)O [5-Aminolevulinic acid]
NGAL; [2]
  NGAL: Chelator: Fe % Retention: 3%
[1]
  Fe: Chromatography: No

## O=C(O)CCC(=O)O [Succinic acid]
NGAL; pH 7.4
  NGAL: Chelator: Fe % Retention: 11%

## N[C@@H](Cc1ccc(O)c(O)c1)C(=O)O [Dihydroxyphenyl alanine (L-DOPA)]
NGAL; [2]
  NGAL: Chelator: Fe % Retention: 10%
[1]
  iron chelating activity by paper chromatography (in words): active
  Fe: Chromatography: Yes

## Nc1nc2[nH]cc(CNc3ccc(C(=O)N[C@@H](CCC(=O)O)C(=O)O)cc3)nc-2c(=O)n1 [Folic acid]
NGAL; [2]
  NGAL: Chelator: Fe % Retention: 3%
[1]
  Fe: Chromatography: No

## Cc1ncc(CO)c(C=O)c1O [Pyridoxal]
NGAL; [2]
  NGAL: Chelator: Fe % Retention: 1%
[1]
  Fe: Chromatography: No

## O=c1cc[nH]c(=O)[nH]1 [Uracil]
NGAL; [2]
  NGAL: Chelator: Fe % Retention: 7%

## Cc1cc2nc3c(=O)[nH]c(=O)nc-3n(C[C@H](O)[C@H](O)[C@H](O)COP(=O)(O)OP(=O)(O)OC[C@H]3O[C@@H](n4cnc5c(N)ncnc54)[C@H](O)[C@@H]3O)c2cc1C [FAD]
NGAL; [2]
  NGAL: Chelator: Fe % Retention: 6%

## Maleic acid
NGAL; [2]
  NGAL: Chelator: Fe % Retention: 4%
[1]
  Fe: Chromatography: No

## O=C(O)c1cc(O)ccc1O [Gentistic Acid]
NGAL; [2]
  NGAL: Chelator: Fe % Retention: 6%
[1]
  Fe: Chromatography: No

## CC(=O)NC(CC(=O)O)c1ccccc1 (racemic) [N-Acetyl-DL-Â- phenylalanine]
NGAL; [2]
  NGAL: Chelator: Fe % Retention: 5%
[1]
  Fe: Chromatography: No

## NC(=O)c1ccc[n+]([C@@H]2O[C@H](COP(=O)(O)OP(=O)(O)OC[C@H]3O[C@@H](n4cnc5c(N)ncnc54)[C@H](O)[C@@H]3O)[C@@H](O)[C@H]2O)c1 [NAD]
NGAL; [2]
  NGAL: Chelator: Fe % Retention: 12%
[1]
  Fe: Chromatography: No

## O=C(O)c1ccc(O)c(O)c1 [3,4- Dihydroxybenzoic Acid]
NGAL; [2]
  NGAL: Chelator: Fe % Retention: 5%
[1]
  iron chelating activity by paper chromatography (in words): active
  Fe: Chromatography: Yes

## COc1ccccc1O [Guaiacol]
NGAL; [2]
  NGAL: Chelator: Fe % Retention: 4%
[1]
  Fe: Chromatography: No

## O=C(O[C@@H]1Cc2c(O)cc(O)cc2O[C@@H]1c1cc(O)c(O)c(O)c1)c1cc(O)c(O)c(O)c1 [(−) Epigallocatechin gallate]
NGAL; [2]
  NGAL: Chelator: Fe % Retention: 45%
NGAL
  NGAL-siderophore-Fe binding activity (in words): active
[1]
  iron chelating activity by paper chromatography (in words): active
  Fe: Chromatography: Yes

## COc1cccc(C(=O)O)c1OC [2,3 Dimethoxybenzoic acid]
NGAL; [2]
  NGAL: Chelator: Fe % Retention: 6%
[1]
  Fe: Chromatography: No

## COc1cc(/C=C/C(=O)O)ccc1O [Ferulic acid]
NGAL; [2]
  NGAL: Chelator: Fe % Retention: 3%
[1]
  Fe: Chromatography: No

## NCCc1cc(O)c(O)cc1O [6-Hydroxydopamine]
NGAL; [2]
  NGAL: Chelator: Fe % Retention: 4%
[1]
  Fe: Chromatography: No

## O=c1oc2c(O)c(O)cc3c(=O)oc4c(O)c(O)cc1c4c23 [Ellagic acid]
NGAL; [2]
  NGAL: Chelator: Fe % Retention: 24%
NGAL
  NGAL-siderophore-Fe binding activity (in words): active
[1]
  iron chelating activity by paper chromatography (in words): active
  Fe: Chromatography: Yes

## Nc1c(O)cccc1C(=O)CC(N)C(=O)O (racemic) [3-Hydroxy-DL-kynurenine]
NGAL; [2]
  NGAL: Chelator: Fe % Retention: 3%
[1]
  iron chelating activity by paper chromatography (in words): active
  Fe: Chromatography: Yes

## O=C(O)c1cccnc1 [Nicotinic acid]
NGAL; [2]
  NGAL: Chelator: Fe % Retention: 3%
[1]
  Fe: Chromatography: No

## NC(=O)NC1NC(=O)NC1=O (centres unmarked) [Allantoin]
NGAL; [2]
  NGAL: Chelator: Fe % Retention: 7%
[1]
  Fe: Chromatography: No

## Nc1c(O)cccc1C(=O)O [3- Hydroxyanthranilic acid]
NGAL; [2]
  NGAL: Chelator: Fe % Retention: 10%
[1]
  Fe: Chromatography: No

## NC(=O)c1ccc[n+]([C@@H]2O[C@H](COP(=O)(O)OP(=O)(O)OC[C@H]3O[C@@H](n4cnc5c(N)ncnc54)[C@H](OP(=O)(O)O)[C@@H]3O)[C@@H](O)[C@H]2O)c1 [NADP]
NGAL; [2]
  NGAL: Chelator: Fe % Retention: 7%
[1]
  iron chelating activity by paper chromatography (in words): active
  Fe: Chromatography: Yes

## O=C(O)CC(C(=O)O)C(O)C(=O)O (racemic) [Isocitric acid]
[1]
  Fe: Chromatography: Yes

## N[C@@H](Cc1ccccc1)C(=O)O [L-Phenylalanine]
NGAL; [2]
  NGAL: Chelator: Fe % Retention: 8%
[1]
  Fe: Chromatography: No

## O=C(O)c1cc(=O)[nH]c(=O)[nH]1 [Orotic acid]
NGAL; [2]
  NGAL: Chelator: Fe % Retention: 13%
[1]
  Fe: Chromatography: No

## Oc1cccc(O)c1O [Benzene 1,2,3 Trial (Pyrogallol)]
NGAL; [2]
  NGAL: Chelator: Fe % Retention: 73%
NGAL
  NGAL-siderophore-Fe binding activity (in words): highest activities
[1]
  Fe: Chromatography: Yes

## β-Nicotinamide adenine
[1]
  iron chelating activity by paper chromatography (in words): active

## O=C(O)c1cccc(O)c1O [2,3- Dihydroxybenzoic acid]
NGAL; [2]
  NGAL: Chelator: Fe % Retention: 35%
NGAL
  NGAL-siderophore-Fe binding activity (in words): active
[1]
  iron chelating activity by paper chromatography (in words): active
  Fe: Chromatography: Yes

## C=CC1=C(C)C(/C=c2/[nH]/c(=C\c3[nH]c(/C=C4\NC(=O)C(C)=C4C=C)c(C)c3CCC(=O)O)c(CCC(=O)O)c2C)NC1=O (centres unmarked) [Biliverdin HCl]
NGAL; [2]
  NGAL: Chelator: Fe % Retention: 9%
[1]
  Fe: Chromatography: No

## COc1ccccc1OC [1,2-Dimethoxybenzene]
NGAL; [2]
  NGAL: Chelator: Fe % Retention: 3%
[1]
  Fe: Chromatography: No

## O=C(/C=C/c1ccc(O)c(O)c1)O[C@H](Cc1ccc(O)c(O)c1)C(=O)O [Rosmarinic acid]
NGAL; [2]
  NGAL: Chelator: Fe % Retention: 50%
NGAL
  NGAL-siderophore-Fe binding activity (in words): active
[1]
  iron chelating activity by paper chromatography (in words): active
  Fe: Chromatography: Yes

## O=C(O)CNC(=O)c1ccco1 [2-Furoylglycine]
NGAL; [2]
  NGAL: Chelator: Fe % Retention: 6%
[1]
  Fe: Chromatography: No

## O=C1CC(C(=O)O)NC(=O)N1 (racemic) [DL- Dihdroorotic acid]
NGAL; [2]
  NGAL: Chelator: Fe % Retention: 7%
[1]
  Fe: Chromatography: No

## O=C(/C=C/c1ccc(O)c(O)c1)OCCc1ccccc1 [Caffeic acid phenethyl ester]
NGAL; [2]
  NGAL: Chelator: Fe % Retention: 8%
[1]
  Fe: Chromatography: No

## NCC(=O)c1ccc(O)c(O)c1 (racemic) [DL- Norepinephrine•HCl]
NGAL; [2]
  NGAL: Chelator: Fe % Retention: 5%
[1]
  Fe: Chromatography: No

## O=C(O)Cc1c[nH]c2ccc(O)cc12 [5-Hydroxy-indoleacetic acid]
NGAL; [2]
  NGAL: Chelator: Fe % Retention: 7%

## Cc1ncc(CO)c(C(=O)O)c1O [4-Pyridoxic Acid]
NGAL; [2]
  NGAL: Chelator: Fe % Retention: 12%
[1]
  Fe: Chromatography: No

## O=S1(=O)Oc2ccccc2O1 [Catechol cyclic sulfonate]
NGAL; [2]
  NGAL: Chelator: Fe % Retention: 6%
[1]
  Fe: Chromatography: No

## O=C([O-])CC(O)(CC(=O)[O-])C(=O)[O-].[Na+].[Na+].[Na+] [Citric acid sodium]
NGAL; [2]
  NGAL: Chelator: Fe % Retention: 6%
[1]
  iron chelating activity by paper chromatography (in words): active
  Fe: Chromatography: Yes

## O=C(O)c1ccccc1O [Salicylic acid]
NGAL; [2]
  NGAL: Chelator: Fe % Retention: 15%
[1]
  Fe: Chromatography: No

## NC(Cc1ccc(O)c(O)c1)C(=O)O (racemic) [3,4-Dihydroxy-DL-phenylalanine]
NGAL; [2]
  NGAL: Chelator: Fe % Retention: 12%
[1]
  iron chelating activity by paper chromatography (in words): active
  Fe: Chromatography: Yes

## CCC1C(=O)NC(CC2=N/C(=C\c3[nH]c(CC4NC(=O)C(C)C4CC)c(C)c3CCC(=O)O)C(CCC(=O)O)=C2C)C1C (centres unmarked) [Urobilin HCl]
NGAL; [2]
  NGAL: Chelator: Fe % Retention: 3%
[1]
  Fe: Chromatography: No

## O=C(O)/C=C/c1ccc(O)c(O)c1 [Caffeic acid]
NGAL; [2]
  NGAL: Chelator: Fe % Retention: 7%
[1]
  Fe: Chromatography: No

## O=C(O)c1cccnc1C(=O)O [2,3-Pyridine-dicarboxylic acid]
NGAL; [2]
  NGAL: Chelator: Fe % Retention: 6%
[1]
  Fe: Chromatography: No

## NC(=O)C1=CN([C@@H]2O[C@H](COP(=O)(O)OP(=O)(O)OC[C@H]3O[C@@H](n4cnc5c(N)ncnc54)[C@H](OP(=O)(O)O)[C@@H]3O)[C@@H](O)[C@H]2O)C=CC1 [NADPH]
NGAL; [2]
  NGAL: Chelator: Fe % Retention: 3%
[1]
  Fe: Chromatography: Yes

## O=C(/C=C/c1ccc(O)c(O)c1)O[C@@H]1C[C@](O)(C(=O)O)C[C@@H](O)[C@H]1O [Chlorogenic acid]
NGAL; [2]
  NGAL: Chelator: Fe % Retention: 6%
